Results from article PMC6624388 (British Journal of Clinical Pharmacology, 2019).
Values after ≈ are worked out from the molar mass of the structure shown. Values joined by “and” are separate entries in the source; they are usually repeats but may differ in a detail not shown here. Equal entries are not always repeated. Where two headings read alike, the source gives them in different places.

Key:
[1] = type: in vivo, human
Part 2 mass balance = type: in vivo, human
[2] = type: in vivo, human; remark: listed apart in the source
[3] = Solubility in water and other physiological relevant media; type: physicochemical
[4] = Stability of navoximod in human plasma; type: in vitro ADME; conditions: five freeze–thaw cycles; at least 110 days at −10°C to −30°C and −60°C to −80°C; 24 h at room temperature
[5] = Safety assessments in Parts 1 and 2; type: in vivo, human; conditions: both parts, healthy volunteers
[6] = cited from earlier work
UGTs = conditions: ref unpublished results; cited from earlier work
tumour growth = conditions: in combination with anti‐PD‐L1, preclinical models; cited from earlier work
[7] = Part 2, oral 200 mg/600 μCi [14C]-navoximod

O[C@H](C[C@H]1c2c(F)cccc2-c2cncn21)[C@H]1CC[C@H](O)CC1 [navoximod]
total IV clearance relative to blood flow ([1]; IV 5 mg): ~ 71 % of blood flow | CL/F (apparent oral clearance) ([1]; Part 1, healthy volunteers, oral 200 mg tablet, fasted, n = 16, geometric mean (geometric CV%)): 112 L/h and 112 (31.4) L/h | AUC(0-inf) ([1]; human, plasma, iv, 5 mg): 80.6 ng·h/mL | AUC(0-t) ([1]; human, plasma, iv, 5 mg): 79.1 ng·h/mL | Cmax ([1]; human, plasma, iv, 5 mg): 114 ng/mL | Tmax ([1]; human, plasma, iv, 5 mg): 5 min | Vd ([1]; human, plasma, iv, 5 mg): 1120 L | clearance ([1]; human, plasma, iv, 5 mg): 1030 mL/min | half-life ([1]; human, plasma, iv, 5 mg): 12.6 h | bioavailability ([1]; human, plasma, oral, 200 mg): 55.5% | AUC(0-inf) ([1]; human, plasma, po, 200 mg): 1790 ng·h/mL | AUC(0-t) ([1]; human, plasma, po, 200 mg): 1770 ng·h/mL | Cmax ([1]; human, plasma, po, 200 mg): 683 ng/mL | Vd/F ([1]; human, plasma, po, 200 mg): 1780 L | half-life ([1]; human, plasma, po, 200 mg): 11 h | recovery of total radioactivity in urine (Part 2 mass balance; % of administered dose, mean (± SD), oral 200 mg/600 μCi [14C]-navoximod): 80.4% | navoximod as share of plasma total radioactivity, geometric mean AUC0‐∞ ratio (Part 2 mass balance; [7]): 4.21% | navoximod as share of plasma total radioactivity, geometric mean C max ratio (Part 2 mass balance; [7]): 10.6% | geometric mean whole blood to plasma AUC0‐∞ ratio for total radioactivity (Part 2 mass balance; Part 2, total radioactivity (parent and metabolites)): 0.965 | Fh (Part 2 mass balance; assuming Fg = 1): approximately 0.66 | extrahepatic clearance (Part 2 mass balance; estimated): 31.2 L/h | total radioactivity recovered in excreta within the first 72 h (Part 2 mass balance; first 72 h, oral 200 mg/600 μCi [14C]-navoximod): 85.0% | Fh * Fg (Part 2 mass balance; from F and Fa): 0.66 | AUC(0-inf) (Part 2 mass balance; human, plasma, po, 200 mg): 1540 ng·h/mL | AUC(0-t) (Part 2 mass balance; human, plasma, po, 200 mg): 1510 ng·h/mL | Cmax (Part 2 mass balance; human, plasma, po, 200 mg): 464 ng/mL | Vd/F (Part 2 mass balance; human, plasma, po, 200 mg): 1680 L | half-life (Part 2 mass balance; human, plasma, po, 200 mg): 9.41 h | CL renal (Part 2 mass balance; human, urine and plasma, oral, 200 mg): 20.3 mL/min | hepatic clearance (CLhep = [1 − Fh] * Qh) (Part 2 mass balance; in vivo): 29.6 L/h | fraction of metabolism (fm) (Part 2 mass balance; oral 200 mg): 0.98 | hepatic first pass extraction (Part 2 mass balance; oral 200 mg): ~ 34% | fraction of the dose absorbed (Fa) (Part 2 mass balance; sum of radioactivity in urine and metabolites in faeces, as fraction): 0.841 | AUC(0-t) ([2]; human, plasma, oral, 200 mg): 4.4 µM·h | Total (urine + feces) % of dose ([2]; mean of eight subjects, oral 200 mg/600 μCi [14C]-navoximod): 5.45 % of dose | Plasma % of TRA (share of total drug-derived exposure) ([2]; pooled 0–48 h plasma, n = 8, adjusted with extraction recovery, oral 200 mg/600 μCi [14C]-navoximod): 7.00% | Feces % of dose ([2]; pooled faeces, mean of eight subjects, oral 200 mg/600 μCi [14C]-navoximod): 3.79 % of dose | Urine % of dose ([2]; pooled urine, mean of eight subjects, oral 200 mg/600 μCi [14C]-navoximod): 1.66 % of dose | solubility [3]: 200 mg/mL (≈ 632 mM) | stability in human plasma [4]: stable | tolerability ([5]; all IV (5 mg) and oral (200 mg) doses): generally well tolerated | severity of adverse events ([5]; all IV and oral doses): mild | mean accumulation index ([6]; BID dosing): approximately 1.7 | half‐life ([6]; clinical studies, monotherapy or with atezolizumab): approximately 12 hours | dose proportionality of exposure ([6]; dose range of 50–1000 mg): dose‐proportional increases in exposure | tolerability of single and twice daily oral doses ([6]; monotherapy, up to 1000 mg, cancer patients): well tolerated | major UGTs responsible for navoximod metabolism (UGTs): UGT1A9 and 2B7 | effect on tumour growth (tumour growth): inhibits tumour growth compared to either treatment alone
